In patent US20070128217A1 (priority 2003, published 2007):

Columns and labels:
[1] = tested on: antibodies in sera from SARS patients (sera 1a, 1b, 2, 6, 37, 62, London, SARS-yellow, SARS-green); type: binding, human; set-up: Binding of serum 6 to linear peptides of protein X1 of SARS-CoV Urbani / Binding of serum 37 to linear peptides of protein X1 of SARS-CoV Urbani / Binding of serum 6 to looped/cyclic peptide (PEPSCAN-ELISA) / Binding of serum 37 to looped/cyclic peptide (PEPSCAN-ELISA) / Binding of serum 37 to looped/cyclic peptides of protein X1 of SARS-CoV Urbani / Binding of serum 6 to linear peptides of protein X2 / Binding of serum 37 to linear peptides of protein X2 / Binding of serum 37 to looped/cyclic peptides of protein X2 of SARS-CoV Urbani / Binding of serum 6 to linear peptides of protein M of SARS-CoV Urbani / Binding of serum 37 to linear peptides of protein M of SARS-CoV Urbani / Binding of serum 6 to looped/cyclic peptides of protein M of SARS-CoV Urbani / Binding of serum 37 to looped/cyclic peptides of protein M of SARS-CoV Urbani / Binding of serum 6 to linear peptides of protein X3 of SARS-CoV Urbani / Binding of serum 37 to linear peptides of protein X3 of SARS-CoV Urbani / Binding of serum 37 to looped/cyclic peptides of protein X3 of SARS-CoV Urbani / Binding of serum 6 to linear peptides of protein X4 of SARS-CoV Urbani / Binding of serum 37 to linear peptides of protein X4 of SARS-CoV Urbani / Binding of serum 37 to looped/cyclic peptides of protein X4 of SARS-CoV Urbani / Binding of serum 6 to linear peptides of protein X5 of SARS-CoV Urbani / Binding of serum 37 to linear peptides of protein X5 of SARS-CoV Urbani / Binding of serum 37 to looped/cyclic peptides of protein X5 of SARS-CoV Urbani / Binding of serum 6 to linear peptides of protein N of SARS-CoV Urbani / Binding of serum 37 to linear peptides of protein N of SARS-CoV Urbani / Binding of serum 6 to linear peptide (PEPSCAN-ELISA) / Binding of serum 1a to looped/cyclic peptides of protein N of SARS-CoV Urbani / Binding of serum 1b to looped/cyclic peptides of protein N of SARS-CoV Urbani / Binding of serum 2 to looped/cyclic peptides of protein N of SARS-CoV Urbani / Binding of serum 6 to looped/cyclic peptides of protein N of SARS-CoV Urbani / Binding of serum 37 to looped/cyclic peptides of protein N of SARS-CoV Urbani / Binding of serum 62 to looped/cyclic peptides of protein N of SARS-CoV Urbani / Binding of serum London to looped/cyclic peptides of protein N of SARS-CoV Urbani / Binding of serum SARS-green to looped/cyclic peptides of protein N of SARS-CoV Urbani: unit not given here
[2] = tested on: control sera (pooled serum of ten healthy LUMC hospital workers; commercial negative donor pooled serum from the Dutch bloodbank); type: binding, human; set-up: Binding of Control serum LUMC to linear peptides / Binding of Control serum Blood-bank to linear peptides / Binding of Control serum LUMC to looped peptides / Binding of Control Serum Blood-Bank to Looped peptides / Binding of Control serum LUMC to linear peptides of the protein M of SARS-CoV Urbani / Binding of Control serum Blood-bank to linear peptides of the protein M of SARS-CoV Urbani / Binding of Control serum LUMC to looped peptides of the protein M of SARS-CoV Urbani / Binding of Control Serum Blood-Bank to Looped peptides of the protein M of SARS-CoV Urbani: unit not given here
[3] = tested on: rabbit serum obtained by immunizing a rabbit with the SARS-CoV strain Frankfurt 1; type: binding; set-up: Binding of a rabbit serum to linear peptides / Binding of a rabbit serum to looped peptides / Rabbit serum linear peptides / Rabbit serum looped peptides / Binding of a rabbit serum to linear peptides of protein N of SARS-CoV Urbani (Rabbit serum linear peptides) / Binding of a rabbit serum to looped/cyclic peptides of protein N of SARS-CoV Urbani (Rabbit serum looped peptides): unit not given here

Q: For FALTCTSTHFAFACA, which “Binding of serum 1a to linear peptides of protein X4 of SARS-CoV Urbani” value [1] is on record?
A: 0.7

Q: And the “Binding of serum 1a to looped/cyclic peptides of protein X4 of SARS-CoV Urbani” value [1]?
A: 0.8

Q: And the “Binding of serum 1b to linear peptides of protein X4 of SARS-CoV Urbani” value [1]?
A: 0.5

Q: And the “Binding of serum 1b to looped/cyclic peptides of protein X4 of SARS-CoV Urbani” value [1]?
A: 0.5

Q: What about the “Binding of serum 2 to linear peptides of protein X4 of SARS-CoV Urbani” value [1] of the same sequence?
A: 0.4

Q: And the “Binding of serum 2 to looped/cyclic peptides of protein X4 of SARS-CoV Urbani” value [1]?
A: 0.7

Q: And the “Binding of serum 6 to linear peptides of protein X4 of SARS-CoV Urbani” value [1]?
A: 0.5

Q: What about the “Binding of serum 6 to looped/cyclic peptides of protein X4 of SARS-CoV Urbani” value [1] of the same sequence?
A: 0.5

Q: What about the “Binding of serum 37 to linear peptides of protein X4 of SARS-CoV Urbani” value [1] of the same sequence?
A: 0.7

Q: And the “Binding of serum 37 to looped/cyclic peptides of protein X4 of SARS-CoV Urbani” value [1]?
A: 0.6

Q: What about the “Binding of serum 62 to linear peptides of protein X4 of SARS-CoV Urbani” value [1] of the same sequence?
A: 0.7

Q: And the “Binding of serum 62 to looped/cyclic peptides of protein X4 of SARS-CoV Urbani” value [1]?
A: 0.7

Q: And the “Binding of serum London to linear peptides of protein X4 of SARS-CoV Urbani” value [1]?
A: 0.7

Q: And the “Binding of serum London to looped/cyclic peptides of protein X4 of SARS-CoV Urbani” value [1]?
A: 0.3

Q: And the “Binding of serum SARS-green to linear peptides of protein X4 of SARS-CoV Urbani” value [1]?
A: 0.5

Q: And the “Binding of serum SARS-green to looped/cyclic peptides of protein X4 of SARS-CoV Urbani” value [1]?
A: 0.5

Q: And the “Binding of serum SARS-yellow to linear peptides of protein X4 of SARS-CoV Urbani” value [1]?
A: 0.6

Q: What about the “Binding of serum SARS-yellow to looped/cyclic peptides of protein X4 of SARS-CoV Urbani” value [1] of the same sequence?
A: 0.7

Q: And the “Binding of Control Serum Blood-Bank to Looped peptides” value [2]?
A: 0.7

Q: What about the “Binding of Control serum Blood-bank to linear peptides” value [2] of the same sequence?
A: 0.6

Q: And the “Binding of Control serum LUMC to linear peptides” value [2]?
A: 0.6

Q: And the “Binding of Control serum LUMC to looped peptides” value [2]?
A: 0.6

Q: What about the “Rabbit serum linear peptides” value [3] of the same sequence?
A: 0.6

Q: And the “Rabbit serum looped peptides” value [3]?
A: 0.4

Q: With FARTRSMWSFNPETN as the sequence, how does the “Binding of serum 1a to linear peptides of protein M of SARS-CoV Urbani” value [1] read?
A: 0.8

Q: And the “Binding of serum 1a to looped/cyclic peptides of protein M of SARS-CoV Urbani” value [1]?
A: 0.9

Q: And the “Binding of serum 1b to linear peptides of protein M of SARS-CoV Urbani” value [1]?
A: 0.7

Q: What about the “Binding of serum 1b to looped/cyclic peptides of protein M of SARS-CoV Urbani” value [1] of the same sequence?
A: 0.6

Q: And the “Binding of serum 2 to linear peptides of protein M of SARS-CoV Urbani” value [1]?
A: 0.7

Q: And the “Binding of serum 2 to looped/cyclic peptides of protein M of SARS-CoV Urbani” value [1]?
A: 0.6

Q: What about the “Binding of serum 6 to linear peptides of protein M of SARS-CoV Urbani” value [1] of the same sequence?
A: 0.4

Q: And the “Binding of serum 6 to looped/cyclic peptides of protein M of SARS-CoV Urbani” value [1]?
A: 0.7

Q: What about the “Binding of serum 37 to linear peptides of protein M of SARS-CoV Urbani” value [1] of the same sequence?
A: 0.9

Q: And the “Binding of serum 37 to looped/cyclic peptides of protein M of SARS-CoV Urbani” value [1]?
A: 0.9

Q: What about the “Binding of serum 62 to linear peptides of protein M of SARS-CoV Urbani” value [1] of the same sequence?
A: 0.8

Q: What about the “Binding of serum 62 to looped/cyclic peptides of protein M of SARS-CoV Urbani” value [1] of the same sequence?
A: 0.8

Q: What about the “Binding of serum London to linear peptides of protein M of SARS-CoV Urbani” value [1] of the same sequence?
A: 0.4

Q: And the “Binding of serum London to looped/cyclic peptides of protein M of SARS-CoV Urbani” value [1]?
A: 0.3

Q: What about the “Binding of serum SARS-green to linear peptides of protein M of SARS-CoV Urbani” value [1] of the same sequence?
A: 0.3

Q: What about the “Binding of serum SARS-green to looped/cyclic peptides of protein M of SARS-CoV Urbani” value [1] of the same sequence?
A: 0.0

Q: And the “Binding of serum SARS-yellow to linear peptides of protein M of SARS-CoV Urbani” value [1]?
A: 0.1

Q: What about the “Binding of serum SARS-yellow to looped/cyclic peptides of protein M of SARS-CoV Urbani” value [1] of the same sequence?
A: 0.5

Q: What about the “Binding of Control Serum Blood-Bank to Looped peptides of the protein M of SARS-CoV Urbani” value [2] of the same sequence?
A: 0.8

Q: And the “Binding of Control serum Blood-bank to linear peptides of the protein M of SARS-CoV Urbani” value [2]?
A: 0.9

Q: What about the “Binding of Control serum LUMC to linear peptides of the protein M of SARS-CoV Urbani” value [2] of the same sequence?
A: 0.5

Q: And the “Binding of Control serum LUMC to looped peptides of the protein M of SARS-CoV Urbani” value [2]?
A: 0.6

Q: What about the “Rabbit serum linear peptides” value [3] of the same sequence?
A: 0.4

Q: And the “Rabbit serum looped peptides” value [3]?
A: 0.3

Q: With FLQCINACRIIMRCW as the sequence, how does the “Binding of serum 1a to linear peptides of protein X1 of SARS-CoV Urbani” value [1] read?
A: 0.8

Q: What about the “Binding of serum 1a to looped/cyclic peptide (PEPSCAN-ELISA)” value [1] of the same sequence?
A: 0.6

Q: And the “Binding of serum 1b to linear peptides of protein X1 of SARS-CoV Urbani” value [1]?
A: 0.6

Q: And the “Binding of serum 1b to looped/cyclic peptide (PEPSCAN-ELISA)” value [1]?
A: 0.4

Q: What about the “Binding of serum 2 to linear peptides of protein X1 of SARS-CoV Urbani” value [1] of the same sequence?
A: 0.6

Q: And the “Binding of serum 2 to looped/cyclic peptide (PEPSCAN-ELISA)” value [1]?
A: 0.5

Q: What about the “Binding of serum 6 to linear peptides of protein X1 of SARS-CoV Urbani” value [1] of the same sequence?
A: 0.7

Q: What about the “Binding of serum 6 to looped/cyclic peptide (PEPSCAN-ELISA)” value [1] of the same sequence?
A: 0.7

Q: And the “Binding of serum 37 to linear peptides of protein X1 of SARS-CoV Urbani” value [1]?
A: 0.7

Q: What about the “Binding of serum 37 to looped/cyclic peptide (PEPSCAN-ELISA)” value [1] of the same sequence?
A: 0.6

Q: And the “Binding of serum 62 to linear peptides of protein X1 of SARS-CoV Urbani” value [1]?
A: 0.6

Q: And the “Binding of serum 62 to looped/cyclic peptide (PEPSCAN-ELISA)” value [1]?
A: 0.6

Q: And the “Binding of serum London to linear peptides of protein X1 of SARS-CoV Urbani” value [1]?
A: 0.3

Q: What about the “Binding of serum London to looped/cyclic peptide (PEPSCAN-ELISA)” value [1] of the same sequence?
A: 1.0

Q: And the “Binding of serum SARS-green to linear peptides of protein X1 of SARS-CoV Urbani” value [1]?
A: 0.3

Q: What about the “Binding of serum SARS-green to looped/cyclic peptide (PEPSCAN-ELISA)” value [1] of the same sequence?
A: 0.2

Q: And the “Binding of serum SARS-yellow to linear peptides of protein X1 of SARS-CoV Urbani” value [1]?
A: 0.4

Q: What about the “Binding of serum SARS-yellow to looped/cyclic peptide (PEPSCAN-ELISA)” value [1] of the same sequence?
A: 0.6

Q: And the “Binding of Control Serum Blood-Bank to Looped peptides” value [2]?
A: 0.6

Q: And the “Binding of Control serum Blood-bank to linear peptides” value [2]?
A: 0.8

Q: What about the “Binding of Control serum LUMC to linear peptides” value [2] of the same sequence?
A: 0.9

Q: What about the “Binding of Control serum LUMC to looped peptides” value [2] of the same sequence?
A: 0.6

Q: What about the “Binding of a rabbit serum to linear peptides” value [3] of the same sequence?
A: 0.1

Q: What about the “Binding of a rabbit serum to looped peptides” value [3] of the same sequence?
A: 0.8
